Reference: patent US11026943B2, “Aminoquinoline derivatives and uses thereof” (UNIVERSITY OF DELHI, priority 2012, dated 2021)

Assays:
[1] = test system: Nurr1 recruitment to TH promoter NL1 and NL3; test: Chromatin immunoprecipitation in PC12 cells; format: cell-based, rat; details: 20 μM AQ or 75 μM CQ for 15 hrs
Protocol: Error bars represent standard deviations.
Cells were washed with PBS, fixed with 1% formaldehyde, lysed, and sonicated according to the manufacturer's instruction (Active Motif). 25 μg of soluble chromatin DNA were co-immunoprecipitated 1 μg of Nurr1 specific antibody (E-20, Santa Cruz) or control antibody (rabbit IgG, santa Cruz). […] Values are shown as fold induction compared to mock treated control cells.

PC12 cells = test: 6-OHDA toxicity in PC12 cells (MTT reduction assay); format: cell-based, rat
Protocol: Cell viabilities were determined by the conventional MTT reduction assay. After incubation for indicated times, cells were treated with the MTT solution (final concentration, 1 mg/ml, Sigma) for 1 h. Formazan grains formed in intact cells were solubilized with MTT Solubilization. Solution containing 10% Triton X-100 plus 0.1 N HCl in anhydrous isopropanol for 24 h and then absorbance at 570 nm was measured with a microplate reader (Molecular Devices, Menlo Park, Calif.).

Nurr1 LBD [2] = target: T1, Nurr1 LBD (Mus musculus, UniProt Q06219); test: Nurr1 LBD GAL4 reporter assay (pSVGAL(DBD)-N(LBD), p8xGAL-Luc) in SK-N-BE(2)C cells; format: cell-based; details: read-out: EC50 Nurr1 LBD-based reporter activity
T1 sequence (Q06219 328-598): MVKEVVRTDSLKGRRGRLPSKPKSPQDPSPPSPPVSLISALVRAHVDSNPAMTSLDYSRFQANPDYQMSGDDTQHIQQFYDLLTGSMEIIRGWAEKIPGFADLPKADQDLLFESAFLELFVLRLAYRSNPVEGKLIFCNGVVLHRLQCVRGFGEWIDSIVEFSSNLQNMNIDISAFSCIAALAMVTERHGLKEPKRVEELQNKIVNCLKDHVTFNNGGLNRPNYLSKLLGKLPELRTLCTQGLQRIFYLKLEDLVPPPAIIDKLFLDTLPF
Text: The pTH2600LUC reporter construct contains the 2.6 kb upstream sequences of the rat tyrosine hydroxylase gene in front of a firefly luciferase gene in pGL3-basic vector. A Nurr1-expression plasmid, pSV40Nurr1, was kindly provided by Dr Orla M. Conneely at Baylor College of Medicine (Houston, Tex., USA). […] The VP16/SRC1 and VP16/SRC3 hybrid were constructed by inserting the transactivation domain of the VP16 protein upstream of SRC1 and SRC3, respectively. […] The recombinant proteins were purified by Ni-NTA column chromatography (Qiagen) according to the manufacturer's instruction. The integrity of all sequences was verified by DNA sequence analyses.
Human neuroblastoma SK-N-BE(2)C cells were maintained in Dulbecco's modified Eagle's medium (DMEM) supplemented with 10% fetal bovine serum. All culture media contained 100 units/ml penicillin and 100 μg/ml streptomycin. For transfection, cells were plated at 1.5×10^5 cells/well in the DMEM media without antibiotic into 24-well plates 1 day prior to transfection. Transfections were carried out by the Lipofectamine plus (Invitrogen) according to the manufacture's protocol. Total DNA amount was 0.5 μg per well with 0.1 μg of pRSV-β-gal as an internal control. 6 hours after transfection, compounds in the DMEM media with 1% charcoal-stripped fetal calf serum was added and incubated overnight. Cells from each well were lysed with 100 μl of lysis buffer, which contains 25 mM Tris-phosphate (pH 7.8), 2 mM DTT, 2 mM CDTA (1,2-diaminocyclohexane-N,N,N′,N′-tetraacetic acid), 10% glycerol, and 1% Triton X-100. Then equal volume of firefly luciferase substrate was added and the luciferase activity was measured using a Luminometer plate reader and normalized for beta-galactosidase activity.

[3] = target: T2, Nurr1 interaction with SRC-1 and SRC-3 (Mus musculus, UniProt Q06219); test: Co-immunoprecipitation of Nurr1 with SRC-1/SRC-3 in SK-N-BE(2)C cells; format: cell-based; details: 30 μM AQ or 100 μM CQ for 16 hours
T2 construct: the C-terminal myc-tagged full-length Nurr1; His (from vector pCDNA3.1/myc-His) (C); expressed in transfected cells; host or cells: SK-N-BE(2)C human neuroblastoma cells
T2 sequence (Q06219 whole entry): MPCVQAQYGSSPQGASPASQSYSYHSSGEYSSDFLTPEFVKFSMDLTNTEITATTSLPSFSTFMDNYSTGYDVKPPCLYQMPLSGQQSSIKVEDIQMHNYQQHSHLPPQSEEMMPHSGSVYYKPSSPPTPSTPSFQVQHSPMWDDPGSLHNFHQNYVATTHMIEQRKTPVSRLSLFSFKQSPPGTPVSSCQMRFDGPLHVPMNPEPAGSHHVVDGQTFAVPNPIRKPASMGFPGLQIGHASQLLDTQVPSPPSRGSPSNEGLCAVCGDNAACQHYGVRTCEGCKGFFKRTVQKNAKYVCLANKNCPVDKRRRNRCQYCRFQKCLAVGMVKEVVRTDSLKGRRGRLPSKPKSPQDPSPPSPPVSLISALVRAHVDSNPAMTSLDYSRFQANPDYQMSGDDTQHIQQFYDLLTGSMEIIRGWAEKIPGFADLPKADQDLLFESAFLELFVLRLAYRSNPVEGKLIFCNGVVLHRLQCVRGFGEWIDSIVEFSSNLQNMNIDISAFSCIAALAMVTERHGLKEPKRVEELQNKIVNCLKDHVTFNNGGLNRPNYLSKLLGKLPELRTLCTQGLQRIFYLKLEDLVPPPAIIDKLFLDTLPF

[4] = test system: primary cultures of rat mesencephalic DA neurons; test: 6-OHDA-induced death in primary mesencephalic DA neurons (TH+ count, [3H]DA uptake); format: cell-based; details: number of TH+ neurons and DA uptake; 20 μM 6-OHDA for 24 hr
Protocol: Control DA neurons were treated with the above medium in the presence of a dopamine uptake blocker, 10 μM mazindol (Sigma). Cells were then washed with ice-cold Krebs Ringers solution and lysed with 0.5 M NaOH. Radioactivity was quantified by a liquid scintillation counter (Beckman, Fullerton, Calif.).
To prepare primary cultures of DA neurons, the ventral mesencephalon was removed from 14 day gestation Sprague Dawley rat embryo (Charles River, Cambridge, Mass.). Tissues were incubated with 0.01% trypsin in MEM (MEM, Invitrogen) for 10 min at 37° C. and triturated using a constricted Pasteur pipette. DA neurons were plated at 1.0×10^5 cells per 9 mm diameter glass cover slip precoated with 100 μg/ml poly-D-lysine (Sigma, St. Louis, Mo.) and 4 μg/ml laminin (Invitrogen). DA neurons were maintained at 37° C. in a humidified 5% CO2 atmosphere in minimum essential medium supplemented with 10% FBS (Hyclone), 2 mM glutamine and 6.0 g/l glucose. […]
Cells were fixed in 4% paraformaldehyde (PFA) for 20 min, washed and then incubated with blocking buffer [PBS, 10% goat serum (Invitrogen), 0.3% Triton X-100 (Sigma)] for 1 hour. […] Following washes with PBS, appropriate fluorescence-tagged secondary antibodies (Jackson Immunoresearch Laboratories, West Grove, Pa.) were used for visualization. […]

Nurr1 DBD = target: T3, Nurr1 DBD (Mus musculus, UniProt Q06219); test: GAL4 / GAL4-Nurr1 DBD reporter assay; format: cell-based
T3 construct: the yeast transcription factor GAL4's DBD is fused to either Nurr1 LBD or DBD; expressed in transfected cells; host or cells: SK-N-BE(2)C human neuroblastoma cells
T3 sequence (Q06219 260-335 limits assumed): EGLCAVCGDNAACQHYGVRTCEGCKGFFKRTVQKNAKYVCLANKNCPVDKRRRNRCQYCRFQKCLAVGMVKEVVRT

Nurr1 LBD [5] = target: T1, Nurr1 LBD; test: Surface plasmon resonance (BIAcore) binding, Nurr1-LBD
Protocol: Binding experiments were performed with the surface Plasmon Resonance-based biosensor instrument BIAcore 3000 (BIAcore AB, Uppsala). Immobilization of the purified proteins on the sensor surface was performed following the standard amine coupling procedure according to manufacturer's instructions. The final immobilization response of each protein was 6000 resonance units. A reference surface was generated simultaneously under the same conditions with BSA and used as a blank to correct for instrument and buffer artifacts. AQ and kanamycin were injected at variable concentrations at 20 μl/min flow rate, and binding to the protein immobilized on the chip was monitored in real-time. […] Binding data were analyzed using the BIAcore 3000 CONTROL® software and the BIAEVALUATION® software.
To investigate whether AQ and CQ physically interact with Nurr1's LBD, the inventors purified the Nurr1 LBD polypeptide (amino acid 328-598) and analyzed their physical binding using the Biacore S51 SPR sensor, which has a higher sensitivity and improved fluidics, enabling the monitoring of small signal changes derived from binding of compounds to proteins.

CCN(CC)Cc1cc(Nc2ccnc3cc(Cl)ccc23)ccc1O [AQ, amodiaquine] was tested, and the “Nurr1 recruitment to NL1 and NL3 sites of the TH promoter” value [1] was “recruited to both NL1 and NL3 sites”, the “neuroprotective effect in PC12 cells” value (PC12 cells) was “neuroprotective effect” and the EC50 (Nurr1 LBD [2]) was roughly 20 µM. The “Nurr1 interactions with SRC-1 and SRC-3” value [3] was “significantly enhanced”, the “6-OHDA-induced death in primary DA neurons” value [4] was “significantly inhibit” and the “response with GAL4 or GAL4-Nurr1 DBD” value (Nurr1 DBD) was “no response”. For the same compound, the “binding to Nurr1-LBD (SPR)” value (Nurr1 LBD [5]) was “specifically bound”.
